Assay [1] relates to luciferase gene-transfected human pancreatic cancer cell line. The assay is described as follows: In vitro drug sensitivity of pancreatic cancer organoid versus plane-cultured cells (luciferase activity). It is filed as cell-based. The procedure:
In each graph, the ordinate depicts the amount of luciferase activity of the pancreatic cancer cells, and the abscissa depicts an anti-cancer drug (gemcitabine, nab-paclitaxel, or 5-FU) concentration in a medium. […] Among the pancreatic cancer organoids, cancer organoids with rich-stroma show lower sensitivity to anticancer drugs.
(§1) Each pre-existing human pancreatic cancer cell line was inoculated at 5×10^3 cells/well on a 96-well plate, and gemcitabine (10^−12 to 10^−3 M) was added thereto 24 hours later. Nuclear staining was performed 72 hours after the gemcitabine addition. A cell number was measured using IN Cell Analyzer 2000, and an IC50 value was calculated. In order to specifically detect cancer cells within an organoid and calculate a cancer cell number, luciferase gene-transfected cancer cells were established and used in analysis. A cancer organoid was formed from the luciferase gene-transfected cancer cells, and luminescence was measured in the presence of a luminescent substrate (e.g., Luciferase Assay System from Promega Corp.) to evaluate the number of cancer cells present.
On the other hand, for the large-scale preparation of pancreatic cancer cell organoids having a uniform size, human pancreatic cancer cells, HUVECs, and hMSCs were cocultured using a three-dimensional culture vessel (e.g., ELPLASIA plate from Kuraray Co., Ltd.) to reconstitute a human pancreatic cancer cell line organoid. The pancreatic cancer cells of each line were inoculated at 1×10^4 cells on each well of a 96-well plate which was also inoculated with arbitrary numbers of HUVECs and hMSCs to reconstitute a cancer organoid. The mixing ratio of the cancer cells, HUVECs, and hMSCs was set to 10:0:0, 10:7:1, 10:7:20, 10:7:0, or 10:0:20.
In order to evaluate the drug sensitivity of cancer cells with high accuracy, an approach for quantitatively evaluating only the number of cancer cells within a cancer organoid was studied (FIG. 14). Luciferase gene-transfected cancer cells (CFPAC-1, PANC-1, or CAPAN-2; typically, CFPAC-1) were established, and a cancer organoid was reconstituted. Then, a luminescent substrate was added thereto, and the luminescence intensity of each well was measured using a luminescence plate reader. The luciferase gene-transfected cancer cells were inoculated at various cell numbers onto a multi-well plate, followed by luciferase assay. As a result, the luminescence intensity was confirmed to be proportional to the cell number (FIG. 15). […]
A pancreatic cancer organoid was reconstituted from luciferase gene-transfected pancreatic cancer cells and stromal cells and evaluated for its sensitivity for a pancreatic cancer therapeutic (anti-cancer drug) (FIG. 17). […]

A further assay relates to CFPAC-1. Put plainly: In vitro drug sensitivity of pre-existing human pancreatic cancer cell line (surviving cell number, IC50). It is filed as cell-based. As to conditions: cells surviving 72 hours after addition. Here is the method: (§2) 8000 cells of human pancreatic cancer cell line were seeded in each well of a 96-well plate, and gemcitabine was added at 24 hours. At 72 hours, the number of viable cells was measured and summarized in a graph. The pancreatic cancer cells of each line were subcutaneously transplanted to NOD/Scid mice. Gemcitabine was intraperitoneally administered at 100 mg/kg from the point in time when the tumor volume reached 100 mm^3. Change in tumor size after the gemcitabine administration was evaluated. The discrepancy between the in vitro anti-cancer drug sensitivity and the in vivo anti-cancer drug sensitivity was confirmed.
as §1
(§3) The in vitro drug sensitivity of a pre-existing human pancreatic cancer cell line CFPAC-1, PANC-1, or SW1990 was evaluated. 10^−12 to 10^−3M GEM was added to the cells cultured for 24 hours, and IC50 was calculated from the number of cells surviving 72 hours after the addition. As a result, IC50 of CFPAC-1, PANC-1, or SW1990 was 0.03 μM, 0.7 μM, or 0.2 μM, respectively (upper panels of FIG. 1). On the other hand, the cancer cells were subcutaneously transplanted to NOD/Scid mice, and the xenograft formed was evaluated for its in vivo drug sensitivity by the administration of GEM at 100 mg/kg.

The next assay relates to PANC-1. The assay is described as above. It is filed as cell-based. The settings on record: cells surviving 72 hours after addition. The procedure: as §2, §1, §3
The test system of the next assay is SW1990. The description is as above. It counts as cell-based. The settings on record: cells surviving 72 hours after addition. Here is the method: as §2, §1, §3
Another assay concerns CFPAC-1 xenograft. Put plainly: In vivo drug sensitivity of subcutaneous cell line xenograft. On the set-up: species or system NOD/Scid mice. As to conditions: 100 mg/kg intraperitoneal. Here is the method: (§4) 8000 cells of human pancreatic cancer cell line were seeded in each well of a 96-well plate, and gemcitabine was added at 24 hours. At 72 hours, the number of viable cells was measured and summarized in a graph. The pancreatic cancer cells of each line were subcutaneously transplanted to NOD/Scid mice. Gemcitabine was intraperitoneally administered at 100 mg/kg from the point in time when the tumor volume reached 100 mm^3. Change in tumor size after the gemcitabine administration was evaluated.
(§5) Each pre-existing human pancreatic cancer cell line was subcutaneously transplanted at 1×10^6 cells to each of 4- to 10-week old female immunodeficient mice (NOD/Scid mice) to prepare a xenograft. The number of xenografts formed and the volume of each xenograft were measured over time. The volume was calculated according to (minor axis×minor axis×major axis/2) mm^3. The intraperitoneal administration of gemcitabine was started from the point in time when the volume of the xenograft formed exceeded 100 mm^3. The dose concentration of gemcitabine was set to 100 mg/kg, 0 mg/kg, 5 mg/kg, or 10 mg/kg, and gemcitabine was administered once every three days for 3 weeks. Then, the xenograft was resected.
(§6) The in vitro drug sensitivity of a pre-existing human pancreatic cancer cell line CFPAC-1, PANC-1, or SW1990 was evaluated. 10^−12 to 10^−3M GEM was added to the cells cultured for 24 hours, and IC50 was calculated from the number of cells surviving 72 hours after the addition.

Another assay has as its system PANC-1 xenograft. The description is as above. As to conditions: 100 mg/kg intraperitoneal. On the set-up: species or system NOD/Scid mice. The procedure: as §4, §5, §6
Another assay has as its system SW1990 xenograft. The assay is described as above. Also on record: species or system NOD/Scid mice. The settings on record: 100 mg/kg intraperitoneal. Here is the method:
as §4, §5, §6

The test system of assay [2] is pre-existing human pancreatic cancer cell line (CFPAC-1) organoid-derived xenograft. The assay is described as follows: Drug sensitivity of human pancreatic cancer organoid-derived xenograft (tumor volume). It counts as in vivo, NOD/Scid mice. As to conditions: for xenograft regression: e.g. 10 mg/kg.
Method: After transplantation of the human pancreatic cancer cells or the human pancreatic cancer cell organoid to immunodeficient mice (NOD/Scid), gemcitabine was administered thereto at 3-day intervals from the point in time when the tumor size exceeded 100 mm3. […] A xenograft was prepared by the subcutaneous transplantation of a human pancreatic cancer cell organoid. Then, the intraperitoneal administration of gemcitabine was started from the point in time when the volume of the xenograft exceeded 100 mm^3. The dose concentration of gemcitabine was set to 0 mg/kg, 5 mg/kg, or 10 mg/kg, and the administration frequency and period were set to once every three days for 3 weeks. The volume of the xenograft was measured at appropriate times. […] The in vivo drug sensitivity of a xenograft reconstituted after transplantation of each organoid was evaluated using a typical pancreatic cancer therapeutic Gemzar (gemcitabine: GEM). A pre-existing human pancreatic cancer cell line organoid prepared by the three-dimensional coculture of a pre-existing human pancreatic cancer cell line, HUVECs, and hMSCs was subcutaneously transplanted to NOD/Scid mice. Then, the administration of GEM (e.g., 10 mg/kg) was started from the point in time when the tumor volume exceeded 100 mm^3. A non-GEM-administration group (0 mg/kg) given only physiological saline was set as a control group. GEM was administered once every three days for 30 days with reference made to a treatment regimen for human pancreatic cancer. A xenograft was recovered at GEM administration day 30 and analyzed histologically.
Assay [3] relates to CFPAC-1-derived cancer organoid xenograft. Put plainly: Tumor size after discontinuation of gemcitabine administration (recurrence). It counts as in vivo. The settings on record: 30 mg/kg for 30 days. The procedure: Whether a xenograft reconstituted from a cancer organoid could reproduce the recurrence of pancreatic cancer was studied. […] The right diagrams show a macro photograph of the xenograft in each period. […] After cancer organoid (CFPAC-1-derived) transplantation, gemcitabine was administered (30 mg/kg) for 30 days. Then, the gemcitabine administration was discontinued.

The subject of assay [4] is human lung cancer cell line (A549 cells). Put plainly: In vitro drug sensitivity of human lung cancer cell line organoid (luciferase activity). It is filed as cell-based. The procedure:
FIG. 29 A lung cancer organoid prepared three-dimensionally using a human lung cancer cell line (A549 cells) expressing luciferase gene and EGFP, as well as HUVECs and hMSCs, and a three-dimensional aggregate composed of only pancreatic cancer cells were evaluated for their in vitro drug sensitivity. The left diagrams show a fluorescence phase-contrast microscope image of the lung cancer organoid. In the graph of the right diagram, the ordinate depicts the amount of luciferase activity of the lung cancer cells, and the abscissa depicts an anti-cancer drug (gemcitabine) concentration in the medium. […] A pre-existing human lung cancer cell line (A549) was introduced from ATCC. In the present study, this cell line was introduced and then used at a passage number of 10 or less in experiments. The pre-existing human lung cancer cell line was transfected with luciferase gene in advance. The human lung cancer cell line, HUVECs, and hMSCs were inoculated onto a three-dimensional culture vessel ([…] plate from Kuraray Co., Ltd.) to reconstitute a human lung cancer cell line organoid. The human lung cancer cell line was inoculated at 3×10^3 cells on each well of a 96-well plate which was also inoculated with arbitrary numbers of HUVECs and hMSCs to reconstitute a cancer organoid. The mixing ratio of the cancer cells, HUVECs, and hMSCs was set to 10:0:0, 10:7:1 (Low hMSC), or 10:7:20 (High hMSC). A lung cancer organoid prepared three-dimensionally using a luciferase gene and EGFP expressing human lung cancer cell line (A549 cells), HUVECs, and hMSCs, and a three-dimensional aggregate composed of only pancreatic cancer cells were evaluated for their in vitro drug sensitivity. The left diagrams show a fluorescence phase-contrast microscope image of the lung cancer organoid. In the graph of the right diagram, the ordinate depicts the amount of luciferase activity of the lung cancer cells, and the abscissa depicts an anti-cancer drug (gemcitabine) concentration in a medium.

Assay [5] relates to primary human pancreatic cancer cells. Put plainly: In vitro gemcitabine sensitivity of primary human pancreatic cancer organoid (luciferase). It is filed as cell-based. The settings on record: primary pancreatic cancer organoid versus pancreatic cancer cyst; 72 hours.
Method: Pancreatic cancer cells transfected with luciferase gene were used for experiments. […] The three-dimensional coculture method abides by the method for a pancreatic cancer organoid from a pancreatic cancer cell line. […] Luciferase gene-transfected primary human pancreatic cancer cells were established, and a primary pancreatic cancer organoid (pancreatic cancer cells: 2×10^4 cells) was reconstituted in vitro and then cultured for 72 hours in the presence of gemcitabine. Then, a luminescent substrate was added thereto, and the luminescence intensity of each organoid was measured using a luminescence plate reader and analyzed.
For assay [6], the system named is primary pancreatic cancer organoid xenograft. Put plainly: In vivo drug sensitivity of primary human pancreatic cancer organoid xenograft (tumor size). As to conditions: primary organoid transplantation group versus cyst transplantation group; once every three days. On the set-up: species or system immunodeficient mice. The procedure:
FIG. 28 A primary cancer organoid was prepared from a primary cancer cell line, and a xenograft was reconstituted in immunodeficient mice in vivo. […] A primary pancreatic cancer organoid (pancreatic cancer cells: 2×10^5 cells) was reconstituted in vitro and then transplanted to immunodeficient mice. […] Gemcitabine was administered thereto once every three days from the point in time when a xenograft reached 100 mm^3.

Assay [7] deals with primary pancreatic cancer organoid. Put plainly: Drug sensitivity of primary human pancreatic cancer organoid versus patient prognosis (luciferase activity). It is filed as cell-based. The settings on record: organoid from patient having postoperative recurrence; 72 hours. Here is the method:
Pancreatic cancer cells were separated from a surgically resected preparation of each pancreatic cancer patient and expanded culture was performed by the cyst culture method to obtain primary human pancreatic cancer cells. […] The obtained primary human pancreatic cancer cells were three-dimensionally cocultured with stromal cells (vascular endothelial cells (HUVECs, etc.) and mesenchymal cells (hMSCs, etc.)) to reconstitute a primary pancreatic cancer organoid. Its drug sensitivity was evaluated. The mixing ratio of these cells at the time of primary pancreatic cancer organoid preparation was 10:7:20. The number of specimens was 2. Primary pancreatic cancer cells were separated from a surgically resected specimen of each pancreatic cancer patient (with or without postoperative recurrence), subjected to expanded culture, and then transfected with luciferase gene. Then, these cancer cells were three-dimensionally cocultured with stromal cells to reconstitute a primary pancreatic cancer organoid. The reconstituted human pancreatic cancer organoid was cultured for 72 hours in the presence of gemcitabine at respective concentrations, followed by luciferase activity measurement.

The subject of assay [8] is EGFP gene-transfected cancer cells (typically, CFPAC-1) organoid. Put plainly: Residual cells in cancer organoid cultured with anti-cancer drug. It is filed as cell-based, human. The settings on record: 1 uM, 72 hours. Here is the method: Residual cancer cells expressing GFP and mesenchymal cells expressing αSMA are observed even after anti-cancer drug (gemcitabine) administration. Increase in positive ratio of a cancer stem cell marker Sox9 was confirmed in the residual cancer cells. The properties of cancer cells remaining after anti-cancer drug addition and stromal cells within a cancer organoid were evaluated. EGFP gene-transfected cancer cells (typically, CFPAC-1) were established, and a cancer organoid was reconstituted (the cancer cell:HUVEC:hMSC ratio is, for example, 10:7:10 to 10:7:20). Then, the cancer organoid was cultured for 72 hours in a medium containing 1 uM gemcitabine.

The test system of assay [9] is pancreatic cancer organoid-derived xenograft. The assay is described as follows: Immunostaining of residual xenograft tissue after gemcitabine administration. It counts as in vivo, immunodeficient mice.
Method: A paraffin section was deparaffinized, then dipped in a citrate buffer, and activated at 121° C. for 20 minutes. After washing with PBS containing 0.05% Tween 20 (PBST) for 5 minutes three times, a buffer for blocking (Dako Japan Co., Ltd.) was added to the section, and blocking reaction was performed at room temperature for 1 hour. Next, a primary antibody solution was added thereto and reacted overnight at 4° C. After the primary antibody (anti-EpCAM antibody, anti-αSMA antibody, anti-cytokeratin 7 (CK7) antibody, anti-CD31 antibody, or anti-laminin antibody) reaction, the section was washed with PBST for 5 minutes three times. A secondary antibody solution diluted with a buffer solution was added thereto and reacted at room temperature for 1 hour in the dark. After the secondary antibody reaction, the section was washed with PBST for 5 minutes three times and mounted on a glass slide using a mounting agent containing a DAPI staining solution (Wako Pure Chemical Industries, Ltd.). A pre-existing human pancreatic cancer cell line was transplanted at 2×10^5 cells to immunodeficient mice. After a xenograft reached 100 mm^3, gemcitabine was administered thereto once every three days. […] A pancreatic cancer cell line was transplanted to immunodeficient mice. Then, gemcitabine administration was started from the point in time when a xenograft reached 100 mm^3. […]
The mark [10] stands for this setting: pancreatic cancer organoid (with HUVECs and hMSCs).
Setting [11] is: two-dimensionally cultured pancreatic cancer cells.

For the compound `O=c1[nH]cc(F)c(=O)[nH]1` [5-FU], the “drug sensitivity (luciferase activity)” value is “lower drug sensitivity” in assay [1] (setting [10]) and “high sensitivity” in assay [1] (setting [11]).
Regarding `Nc1ccn([C@@H]2O[C@H](CO)[C@@H](O)C2(F)F)c(=O)n1` [gemcitabine], the 50% inhibitory concentration (IC50) in the assay on CFPAC-1 came out at 30 nM; in the assay on PANC-1 it was 700 nM; in the assay on SW1990, 200 nM. Besides, the tumor regression entry in the assay with CFPAC-1 xenograft is listed as “tumor regression was found”; with PANC-1 xenograft, “tumor regression was found”; in the assay with SW1990 xenograft, “no tumor regression was found”. For the same compound, the “drug sensitivity (luciferase activity)” value in assay [1] (setting [10]) is listed as “lower drug sensitivity”; in assay [1] (setting [11]), “high sensitivity”; in assay [4] (High stroma group (hMSCs and HUVECs with high incidence)) it was “even lower sensitivity”; in assay [4] (lung cancer cell aggregate), “high sensitivity”; in assay [4] (organoid culture groups) it was “lower drug sensitivity”; in [7], “resistance”. The “increase in xenograft volume” value in assay [2] (all transplantation groups, e.g. 10 mg/kg once every three days for 30 days, versus non-GEM group) is given as “suppressed”. Further, the xenograft regression entry is “exhibited no regression and increased in volume” in assay [2] (organoid with hMSCs in a large number (High hMSC)); “exhibited regression” in [2] (organoids of the other groups). Besides, the “tumor size after discontinuation of administration” value is on record as “increased markedly” in [3] (pancreatic cancer organoid transplantation group) and “constant tumor size” in [3] (suspension transplantation group). In addition, the “drug resistance (luminescence intensity)” value in assay [5] is reported as “significantly high drug resistance”. In addition, the “drug resistance (tumor size)” value in assay [6] was “significantly high drug resistance”. Moreover, in assay [8], the “residual cancer stem cells in organoid” value is “GFP-positive and Sox9-positive cancer stem cells are confirmed to remain”. Also, the “ABCG2-expressing pancreatic cancer cells after administration” value in [9] (cancer organoid transplantation group, administration day 30) was “Pancreatic cancer cells expressing ABCG2 are confirmed to remain”. In [9] (organoid-derived xenograft, 1 month after start of administration once every three days), the “Ki67-positive cells after administration” value is on record as “high incidence of Ki67-positive cells”.
